Earlier results as cited in patent US20090215102A1, “Method to Assess Breast Cancer Risk” (priority 2005, published 2009).
Counter-ions that a name gives are not always drawn. Like-named read-outs stand apart in the source and are kept apart here. Values belong to the molecule of their own block, whether it stands above or below them.

What was measured:
[1] = in vivo
estrogen receptors = settings: preclinical data
[2] = tested on: rat mammary carcinoma induced by dimethylbenzanthracene (DMBA)

half-life of metabolite suggested by time to steady state [1]: ~14 days
Structure (SMILES): CC/C(=C(\c1ccccc1)c1ccc(OCCNC)cc1)c1ccccc1 [N-desmethyl tamoxifen]

action in uterine and breast tissues (estrogen receptors): estrogen antagonist
clearance following chronic dosing: 40 to 60 L/kg per hour
Structure (SMILES): O=C(c1ccc(OCCN2CCCCC2)cc1)c1c(-c2ccc(O)cc2)sc2cc(O)ccc12 [Raloxifene]

Structure (SMILES): CC/C(=C(\c1ccccc1)c1ccc(OCCN(C)C)cc1)c1ccccc1 [Tamoxifen citrate]
antiestrogenic properties in animal test systems ([2]; animal test systems): potent antieskogenic properties

Structure (SMILES): CC/C(=C(\c1ccccc1)c1ccc(OCCN(C)C)cc1)c1ccccc1 [Tamoxifen]
induction of rat mammary carcinoma induced by DMBA ([2]; rat): inhibits the induction
associated toxicity (breast cancer; particularly women aged 50 or older): increased risk of endometrial cancer, stroke, pulmonary emboli, and deep vein thrombosis
breast cancer risk reduction (breast cancer; women with a history of LCIS): 56%
breast cancer risk reduction (breast cancer; women with a history of atypical ductal hyperplasia): 86%
